The values below come from PubChem BioAssay AID328 (DTP/NCI, 2004).

Molecules are shown by their SMILES. Toxic doses and inconclusive results are not listed.

The test deals with BDF1 mice, P388 leukemia ip, median survival T/C. Kind of test: NCI In Vivo Anticancer Drug Screen. Data for tumor model P388 Leukemia (intraperitoneal) in B6D2F1 (BDF1) mice. The note with it: endpoint: median survival time, higher = longer survival. The method, boiled down:
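Transplantable tumour in mice; compound vs vehicle dosing; survival scored; ratio of treated to control reported.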

Where [1] appears, read: dose: 100.0 mg/kg/injection, schedule: Q04DX003 (ip), vehicle: Klucel (hydroxypropylcellulose) (HPC).
[2] abbreviates: dose: 200.0 mg/kg/injection, schedule: Q04DX003 (ip), vehicle: Klucel (hydroxypropylcellulose) (HPC).
The mark [3] stands for this setting: dose: 400.0 mg/kg/injection, schedule: Q04DX003 (ip), vehicle: Klucel (hydroxypropylcellulose) (HPC).
Where [4] appears, read: dose: 25.0 mg/kg/injection, schedule: Q01DX009 (ip), vehicle: water.
Where [5] appears, read: dose: 50.0 mg/kg/injection, schedule: Q01DX009 (ip), vehicle: water.
Where [6] appears, read: dose: 25.0 mg/kg/injection, schedule: Q01DX009 (ip), vehicle: Klucel (hydroxypropylcellulose) (HPC).
Where [7] appears, read: dose: 100.0 mg/kg/injection, schedule: Q01DX009 (ip), vehicle: Klucel (hydroxypropylcellulose) (HPC).
Setting [8] is: dose: 100.0 mg/kg/injection, schedule: Q01DX001 (ip), vehicle: saline with Tween-80.
Where [9] appears, read: dose: 200.0 mg/kg/injection, schedule: Q01DX001 (ip), vehicle: saline with Tween-80.
Setting [10] is: dose: 200.0 mg/kg/injection, schedule: Q01DX009 (ip), vehicle: Klucel (hydroxypropylcellulose) (HPC).
The mark [11] stands for this setting: dose: 100.0 mg/kg/injection, schedule: Q04DX003 (ip), vehicle: saline with Tween-80.
[12] abbreviates: dose: 200.0 mg/kg/injection, schedule: Q04DX003 (ip), vehicle: saline with Tween-80.
[13] abbreviates: dose: 400.0 mg/kg/injection, schedule: Q04DX003 (ip), vehicle: saline with Tween-80.

With `O=C(OC1COC(Br)C(OC(=O)c2ccccc2)C1OC(=O)c1ccccc1)c1ccccc1` (stereo unspecified), the T/C runs as follows: under setting [1], 100 % of control; under setting [2], 95 % of control; under setting [3], 100 % of control.

As for `CNNCc1ccc(/C=N/NC(N)=S)cc1`, the T/C runs as follows: (dose: 6.25 mg/kg/injection, schedule: Q01DX009 (ip), vehicle: water) 106 % of control; (dose: 12.5 mg/kg/injection, schedule: Q01DX009 (ip), vehicle: water) 114 % of control; under setting [4], 92 % of control; under setting [5], 92 % of control.

As for `CCCC1CC[N-]CC1.CCCC1CC[N-]CC1.CCCC1CC[N-]CC1.CCCC1CC[N-]CC1.[Cl][Ni][Cl]`, the T/C runs as follows: (dose: 2.0 mg/kg/injection, schedule: Q01DX009 (ip), vehicle: saline) 116 % of control; (dose: 4.0 mg/kg/injection, schedule: Q01DX009 (ip), vehicle: saline) 97 % of control; (dose: 6.25 mg/kg/injection, schedule: Q01DX009 (ip), vehicle: saline) 112 % of control; (dose: 8.0 mg/kg/injection, schedule: Q01DX009 (ip), vehicle: saline) 116 % of control; (dose: 50.0 mg/kg/injection, schedule: Q04DX003 (ip), vehicle: saline) 100 % of control.

For the molecule `CCOC(=O)CC(C)(C)NCc1ccccc1`, the T/C was 90 % of control under setting [6]; 108 % of control (dose: 25.0 mg/kg/injection, schedule: Q04DX003 (ip), vehicle: Klucel (hydroxypropylcellulose) (HPC)); 95 % of control (dose: 50.0 mg/kg/injection, schedule: Q04DX003 (ip), vehicle: Klucel (hydroxypropylcellulose) (HPC)); 95 % of control under setting [7]; 116 % of control under setting [1].

Consider `C=C1C(O)C2(O)OCC34C(CC5C(C)=CC(=O)C(OC)C5(C)C23)OC(=O)C(OC(=O)C(C)CC)C14` (stereo unspecified), for which the T/C is, setting by setting: (dose: 0.06 mg/kg/injection, schedule: Q01DX009 (ip), vehicle: saline with Tween-80) 98 % of control; (dose: 0.12 mg/kg/injection, schedule: Q01DX009 (ip), vehicle: saline with Tween-80) 112 % of control; (dose: 0.25 mg/kg/injection, schedule: Q01DX009 (ip), vehicle: saline with Tween-80) 105 % of control; (dose: 0.5 mg/kg/injection, schedule: Q01DX009 (ip), vehicle: saline with Tween-80) 110 % of control; (dose: 1.0 mg/kg/injection, schedule: Q01DX009 (ip), vehicle: saline with Tween-80) 120 % of control; (dose: 2.0 mg/kg/injection, schedule: Q01DX009 (ip), vehicle: saline with Tween-80) 115 % of control.

With `Cc1c2c(cc3c1[nH]c1ccccc13)C(c1ccc(Cl)cc1)=NCC2`, under setting [7], the T/C was 86 % of control.

Regarding `COB(OC)OC`, the T/C was 91 % of control under setting [1], 104 % of control under setting [2] and 91 % of control under setting [3].

In the case of `CS(=O)(=O)OCCCNCCCOS(C)(=O)=O`, the T/C is, setting by setting: (dose: 10.0 mg/kg/injection, schedule: Q01DX009 (ip), vehicle: saline) 228 % of control; (dose: 10.0 mg/kg/injection, schedule: Q01DX010 (ip), vehicle: saline) 255 % of control; (dose: 12.0 mg/kg/injection, schedule: Q04DX003 (ip), vehicle: saline) 186 % of control; (dose: 19.0 mg/kg/injection, schedule: Q04DX003 (ip), vehicle: saline) 204 % of control; (dose: 20.0 mg/kg/injection, schedule: Q01DX009 (ip), vehicle: saline) 255 % of control; (dose: 20.0 mg/kg/injection, schedule: Q01DX010 (ip), vehicle: saline) 300 % of control. The T/C by setting is: (dose: 29.0 mg/kg/injection, schedule: Q04DX003 (ip), vehicle: saline) 209 % of control; (dose: 40.0 mg/kg/injection, schedule: Q01DX009 (ip), vehicle: saline) 282 % of control; (dose: 40.0 mg/kg/injection, schedule: Q01DX010 (ip), vehicle: saline) 300 % of control; (dose: 45.0 mg/kg/injection, schedule: Q04DX003 (ip), vehicle: saline) 240 % of control; (dose: 66.0 mg/kg/injection, schedule: Q04DX003 (ip), vehicle: saline) 245 % of control; (dose: 80.0 mg/kg/injection, schedule: Q01DX010 (ip), vehicle: saline) 94 % of control. In addition, the T/C (dose: 150.0 mg/kg/injection, schedule: Q04DX003 (ip), vehicle: saline) is 300 % of control.

Take `Cn1c(=O)c2nc(-c3ccc(Cl)cc3)c(-c3ccc(Cl)cc3)nc2n(C)c1=O`: the T/C under setting [8] was 110 % of control and the T/C under setting [9] is 112 % of control.

Turning to `COc1cc2c(cc1OC)C1CCN3CCCC3N1CC2` (stereo unspecified), the T/C is 109 % of control (dose: 100.0 mg/kg/injection, schedule: Q01DX001 (ip), vehicle: Klucel (hydroxypropylcellulose) (HPC)) and 90 % of control (dose: 200.0 mg/kg/injection, schedule: Q01DX001 (ip), vehicle: Klucel (hydroxypropylcellulose) (HPC)).

As to `CC1=CCCC(C)(C)C1/C=C/C(C)=C/C(=O)O` (stereo unspecified), the T/C was 111 % of control (dose: 3.13 mg/kg/injection, schedule: Q01DX009 (ip), vehicle: Klucel (hydroxypropylcellulose) (HPC)); 103 % of control (dose: 6.25 mg/kg/injection, schedule: Q01DX009 (ip), vehicle: Klucel (hydroxypropylcellulose) (HPC)); 99 % of control (dose: 12.5 mg/kg/injection, schedule: Q01DX009 (ip), vehicle: Klucel (hydroxypropylcellulose) (HPC)); 99 % of control under setting [6]; 104 % of control under setting [7]; 110 % of control under setting [10].

With `IC12CC3CC(CC(C3)C1)C2`, the T/C was 90 % of control under setting [11], 90 % of control under setting [12] and 86 % of control under setting [13].

For `COc1cc(C(C2=C(O)c3ccccc3C(=O)C2=O)C2=C(O)c3ccccc3C(=O)C2=O)cc(Br)c1O`, the T/C (dose: 33.0 mg/kg/injection, schedule: Q01DX001 (ip), vehicle: saline) was 95 % of control; the T/C (dose: 50.0 mg/kg/injection, schedule: Q01DX001 (ip), vehicle: saline) is 104 % of control; the T/C (dose: 75.0 mg/kg/injection, schedule: Q01DX001 (ip), vehicle: saline) is 100 % of control; the T/C (dose: 100.0 mg/kg/injection, schedule: Q01DX001 (ip), vehicle: saline) is 115 % of control; the T/C (dose: 200.0 mg/kg/injection, schedule: Q01DX001 (ip), vehicle: saline) was 110 % of control.

For `COC(=O)c1cc([N+](=O)[O-])ccc1Cl`, the T/C is, setting by setting: (dose: 100.0 mg/kg/injection, schedule: Q04DX003 (ip), vehicle: saline) 98 % of control; (dose: 200.0 mg/kg/injection, schedule: Q04DX003 (ip), vehicle: saline) 102 % of control; (dose: 400.0 mg/kg/injection, schedule: Q04DX003 (ip), vehicle: saline) 100 % of control.

With `c1ccc2c(c1)Sc1ccccc1N2CC1CCCN2CCCCC12` (stereo unspecified), the T/C runs as follows: (dose: 12.5 mg/kg/injection, schedule: Q01DX001 (ip), vehicle: Klucel (hydroxypropylcellulose) (HPC)) 106 % of control; (dose: 25.0 mg/kg/injection, schedule: Q01DX001 (ip), vehicle: Klucel (hydroxypropylcellulose) (HPC)) 100 % of control; (dose: 50.0 mg/kg/injection, schedule: Q01DX001 (ip), vehicle: Klucel (hydroxypropylcellulose) (HPC)) 93 % of control.

Consider `O=C(OCCC(OC(=O)c1ccccc1)C(COC(=O)c1ccccc1)OC(=O)c1ccccc1)c1ccccc1` (stereo unspecified), for which the T/C is 87 % of control under setting [7] and 95 % of control under setting [10].

On to `CC1(O)C=CC(=O)C=C1`, for which the T/C is 157 % of control under setting [4] and 173 % of control under setting [5].

Consider `CCOc1ccc(N2CC(=O)N3CCCC(c4ccccc4)N3C(=O)C2)cc1` (stereo unspecified), for which the T/C is, setting by setting: (dose: 50.0 mg/kg/injection, schedule: Q01DX005 (ip), vehicle: saline with Tween-80) 108 % of control; (dose: 100.0 mg/kg/injection, schedule: Q01DX005 (ip), vehicle: saline with Tween-80) 94 % of control; (dose: 200.0 mg/kg/injection, schedule: Q01DX005 (ip), vehicle: saline with Tween-80) 94 % of control.

Regarding `CC(NC(=O)/C=C\C(=O)O)c1ccccc1` (stereo unspecified), the T/C reads like this: under setting [11], 100 % of control; under setting [12], 91 % of control; under setting [13], 112 % of control.

As to `COC(C)c1cnccc1C(C)c1cc2ccccc2[nH]1` (stereo unspecified), the T/C is 105 % of control under setting [8] and 108 % of control under setting [9].
